Reference: patent US6309825A, “Analytical and therapeutic agents” (University of Leicester, priority 1995, dated 2001)
Values belong to the molecule of their own block, whether it stands above or below them.

Tests used:
avidin [1] = biological target: T1, avidin (Gallus gallus, UniProt P02701); experiment: Enzyme-linked avidin binding assay, competition experiments; details: competitor 10 μM, co-incubation, avidin-HRP, paraformaldehyde-fixed DNA
T1 construct: mature chain without signal peptide
Protocol: Treatment of DNA with methylene blue leads to the oxidation of deoxyguanosine residues to 8-oxodeoxyguanosine. DNA (0.5 mg/ml in water) was incubated in the presence of methylene blue (20 μg/ml final concentration in 0.1 M tris, pH 8.5) in a petri dish on ice shielded from a white light source by 0.5 cm water in an upturned petri dish lid (light source to DNA distance was 3 cm). Irradiation was for 3 hours at which time solid sodium chloride was added to a final concentration of 1 M and the DNA precipitated with ethanol. The DNA was removed and dissolved in de-ionized water. The DNA was re-precipitated and washed twice more to remove any remaining methylene blue.
Avidin-horse radish peroxidase (avidin-HRP) (Sigma) binding to methylene blue-treated DNA was compared to its binding to untreated DNA. Treatment of DNA with methylene blue leads to the generation of oxidised base products including 8-oxodeoxyguanosine. Competition experiments were carried out to define the specificity of binding of avidin to DNA. Damaged and native DNA bind to ELISA plates and in initial experiments, native and methylene blue-treated double-stranded and single-stranded DNA were bound to ELISA plates (Immuno plate MAXISORP (RTM), Nunc) at 50 μg/ml in PBS (50 μl/well). However since it is difficult to quantify the amount of DNA remaining after the various procedures, Millipore MULTISCREEN (RTM)filtration plates were used in this experiment. Native and methylene blue-treated double-stranded and single-stranded DNA ([…] in water) was added to appropriate wells ([…]) of MULTISCREEN-HV 96-well plates. […] Following washing with PBS 3 times, detection of bound peroxidase-labelled avidin was performed using 50 μl/well of o-phenylenediamine (0.5 mg/ml in 0.05 M phosphate-citrate, pH 5.0, and containing 0.03% w/v sodium perborate as a substitute for H2 O2) as substrate; the reaction was stopped after 20 minutes at room temperature using 2M […] (25 μl/well) and the product determined spectrophotometrically at 492 nm. […]

avidin [2] = biological target: T1, avidin; experiment: Fluorescent binding assay (FBA) with avidin-FITCS; details: for concentration at which avidin binding reached a maximum: base bound to a substratum of fixed cells, avidin-FITCS
Protocol: (§1) Cultures of IMR 32 cells were grown in 96-well plates as described above and allowed to differentiate. Untreated cultures were fixed and permeabilised as above to provide a substrate to which 8-oxodeoxyguanosinewould bind thus permitting FAAs to be performed. Various concentrations of either the normal or the oxidised base were incubated on these plates (100 μl/well) for 1 hour. The ELISA plates were then washed 3 times with PBS before visualising bound base with either avidin-conjugated FITCS (1:200 in PBS for 1 hour) or with a FITCS-conjugated anti-biotin monoclonal antibody (1:80 in PBS for 1 hour). The level of binding was quantified with a fluorescence plate reader (Denley, Billingshurst, U.K.), excitation 485 nm and emission 535 nm.

[3] = tested on: monoclonal antibody to biotin; experiment: Fluorescent binding assay (FBA) with FITCS-conjugated anti-biotin monoclonal antibody; set-up: species or system goat; details: base bound to a substratum of fixed cells
Protocol: Avidin-FITCS conjugate was from Sigma (A 2050), as was monoclonal, goat anti-biotin-FITCS conjugate antibody (clone number BN-34) (F4024).
as §1

avidin [4] = biological target: T1, avidin; experiment: Inhibition of avidin binding to hydrogen peroxide treated cells; details: avidin conjugate preincubated with competitor; all at 100 μM (biotin 10 μM)
Protocol: Cells were washed in warm PBS. Cultures were fixed and permeabilised with ice-cold methanol for 15 minutes, rehydrated in PBS before blocking with PBS containing 10% (w/v) normal goat serum (NGS). […] The control, PBS in the absence of competitor, was treated in parallel. […] Fixed cells were incubated with the solutions for 1 hour in the dark at room temperature. The slides were washed three times in PBS before coverslips were mounted on the slides using VECTORSHIELD (RTM) (Vector Laboratories, Peterborough, U.K.), a glycerol-based anti-bleaching mountant.

avidin [5] = biological target: T1, avidin; experiment: Capillary electrophoresis analysis of binding
Protocol: Capillary electrophoresis was performed using a Beckman […].) controlled by accompanying System Gold (RTM) software. All analyses were carried out using an untreated fused silica capillary of 57 cm total length and 75 μm internal diameter. […] Samples were then placed on ice until analysed by CE. The electrophoresis solution was 10 mM sodium tetraborate (pH 9.3) filtered through a 0.45 μm filter. Samples were loaded using positive pressure (nominal 0.5 psi) for 5 seconds at 25° C. The run time was 10 minutes under an applied voltage of 30 kV with a rise time of 0.17 minutes (approx. 10.2 seconds). Detection was by absorbence at 200 nm and comparison with known standards. Concentration of each compound was estimated from peak height.

IMR 32 cells [6] = experiment: cells
Protocol: After differentiation, media was carefully aspirated and prewarmed Hanks buffered salt solution (HBSS) added to each well (200 μl) with or without various concentrations of freshly prepared hydrogen peroxide. The cultures were incubated with hydrogen peroxide for 1 hour after which the HBSS was replaced with fresh media (α-MEM with 5% (v/v) HIFCS and 1% (v/v) non-essential amino acids) and allowed to recover for 24 hours under standard incubation conditions before cell death was assessed using the MTT assay and binding of avidin assessed by fluorescence analysis.
Cells were prefixed by the addition of 2% (w/v) paraformaldehyde (in phosphate buffered saline (PBS) at pH 7.4) for 15 mins after washing the cells with PBS. Cells were washed in warm PBS. Cultures were fixed and permeabilised with ice-cold methanol for 15 minutes, rehydrated in PBS before blocking with PBS containing 10% (w/v) normal goat serum (NGS). The blocking solution was washed off with PBS containing 0.2% (w/v) NGS.

IMR 32 cells [7] = experiment: UVA exposure with α-tocopherol preincubation, fluorescent assessment of avidin binding; type: cell-based; details: 200 μM preincubation
Protocol: (§2) Differentiated cells were exposed to UVA irradiation with or without preincubation with the lipid-phase antioxidant α-tocopherol. The level of UVA irradiation was monitored in each experiment with a radiometer. Antioxidant was added to the existing medium 24 hours prior to irradiation at a final concentration of 200 μM (stock made up immediately prior to use in ethanol). […] Medium was removed prior to irradiation and cells washed in HBSS. The cells were irradiated from above at room temperature. Controls were sham irradiated. The cells were fixed as described below.
Cells were washed in warm PBS. Cultures were fixed and permeabilised with ice-cold methanol for 15 minutes, rehydrated in PBS before blocking with PBS containing 10% (w/v) normal goat serum (NGS). […] DNA damage was visualised with avidin-conjugated fluorescein isothiocyanate (FITCS) (1:200 in PBS for 1 hour) or with a FITCS-conjugated anti-biotin monoclonal antibody (1:80 in PBS for 1 hour) for either fluorescence microscopy or for quantitative assessment with a fluorescence plate reader (Denley, Billingshurst, U.K.).

IMR 32 cells [8] = experiment: MTT assay after UVA exposure; type: cell-based; details: α-tocopherol pre-incubation, 24 hours post-irradiation
Protocol: as §2

T1 sequence (P02701 25-152): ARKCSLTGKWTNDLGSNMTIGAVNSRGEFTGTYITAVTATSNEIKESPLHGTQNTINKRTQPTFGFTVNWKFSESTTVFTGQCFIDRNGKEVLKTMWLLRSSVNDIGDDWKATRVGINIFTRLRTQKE

Compound: O=C(O)CCCC[C@@H]1SC[C@@H]2NC(=O)N[C@@H]21 [biotin]
- recovery of unbound biotin after incubation with avidin (avidin [5]; biotin 100 μM, various concentrations of avidin, theoretical values assume 4 biotin molecules per avidin): very close to the theoretical values expected
- inhibition of avidin-FITCS binding to hydrogen peroxide treated cells (avidin [4]): prevented binding

Compound: Nc1nc2nc[nH]c2c(=O)[nH]1 [guanine]
- inhibition of avidin binding to double-stranded, methylene blue treated DNA (avidin [1]): inhibited binding
- inhibition of avidin-FITCS binding to hydrogen peroxide treated cells (avidin [4]): did not

Compound: OO [hydrogen peroxide]
- hydrogen peroxide concentration at which the level of avidin binding plateaued (IMR 32 cells [6]; 1 hour exposure, 24 hours recovery): 100 nM
- minimal effective concentration (IMR 32 cells [6]; Homo sapiens, IMR-32, 1 h, read-out: hydrogen peroxide concentration at which avidin binding was statistically different from control): 0.01 µM

Compound: Cc1c(C)c2c(c(C)c1O)CCC(C)(CCCC(C)CCCC(C)CCCC(C)C)O2 (stereo not drawn) [α-tocopherol]
- effect on avidin binding to UVA irradiated cells, longer periods of irradiation (IMR 32 cells [7]; 24 hours post-irradiation): not effective in reducing binding
- effect on avidin binding to UVA irradiated cells, short periods of irradiation (IMR 32 cells [7]; 24 hours post-irradiation): reduced the level of avidin binding
- effect on avidin binding over the range of irradiation times studied (IMR 32 cells [7]; multiple range ANOVA): significantly (p=0.003) reduced the binding of avidin
- effect on UVA-induced increase in MTT metabolism (IMR 32 cells [8]): prevented

The remaining lines, values ahead:

- inhibition of avidin binding to double-stranded, methylene blue treated DNA (avidin [1]): greatest inhibition
- theoretical sensitivity of avidin binding (detectable amount) (avidin [2]; assuming 100% binding of 8-oxodeoxyguanosine to the substratum): 10^4 molecules
- concentration at which avidin binding reached a maximum (avidin [2]): 10^-15 M
- concentration at which binding of the monoclonal antibody to biotin reached a maximum [3]: 10^-9 M
- inhibition of avidin-FITCS binding to hydrogen peroxide treated cells (avidin [4]): inhibited binding
Compound: Nc1nc2c([nH]c(=O)n2[C@H]2C[C@H](O)[C@@H](CO)O2)c(=O)[nH]1 [8-oxodeoxyguanosine]

- rate of binding to avidin (avidin [5]; purely chemical system, minimal preincubation): extremely rapid
Compound: Nc1nc2[nH]c(=O)[nH]c2c(=O)[nH]1 [8-oxoguanine]

- concentration at which avidin binding reached a maximum (avidin [2]): 10^-6 M
- concentration at which binding of the monoclonal antibody to biotin reached a maximum [3]: 10^-9 M
Compound: Nc1nc2c(ncn2[C@H]2C[C@H](O)[C@@H](CO)O2)c(=O)[nH]1 [deoxyguanosine]

- inhibition of avidin binding to double-stranded, methylene blue treated DNA (avidin [1]): inhibited binding
Compound: Nc1nc2c(ncn2[C@@H]2O[C@H](CO)[C@@H](O)[C@H]2O)c(=O)[nH]1 [guanosine]
